The text below walks through data of US9073820B2, “Pharmaceutical compositions comprising napthamides” (OREGON HEALTH & SCIENCE UNIVERSITY, priority 2011, dated 2015).

This test concerns CREB-mediated gene transcription. The test is described as follows: CREB reporter (pCRE-RLuc) assay in HEK 293T cells, forskolin-stimulated. The format is cell-based. Here is the method: HEK293T cells in a 10-cm plate were transfected with pCRE-RLuc (6.0 μg) using Lipofectamine™ 2000 (Invitrogen, Carlsbad, Calif.) according to manufacturer's protocol. After 3 h, the transfected cells were collected and replated into 96-well plates (1-2×10^4 cells/well). The cells were allowed to attach to the bottom of the wells for overnight, when compounds of different concentrations were added to the cells. Forskolin (final concentration of 10 μM, LC Laboratories, Woburn, Mass.) was added 30 min after the addition of the compounds. The cells were then incubated at 37° C. for 5 h. The media in the wells were removed and the cells were then lysed in 30 μL of 1×Renilla luciferase lysis buffer (Promega, Madison, Wis.). To measure Renilla luciferase activity, five μL of the lysate was combined with 30 μL of benzyl-coelenterazine (Nanolight, Pinetop, Ariz.) solution in PBS (pH 7.4, 10 μg/mL). The sample protein concentration was determined by Dye Reagent Concentrate (Bio-Rad, Hercules, Calif.). The Renilla luciferase activity was normalized to protein content in each well and expressed as relative luciferase unit/μg protein (RLU/μg protein). The IC50 was derived from non-linear regression analysis of the RLU/μg protein-concentration curve in Prism 5.0 (La Jolla, Calif.).

For the compound `NCCCOc1cc2ccccc2cc1C(=O)NCCCOc1cc2ccccc2cc1C(=O)Nc1ccc(Cl)cc1O` [Compound 4], the “CREB-mediated gene transcription in HEK 293T cells (in words)” value (HEK 293T cells) was “inhibited”. Where the note is “Homo sapiens, HEK-293T, 5 h, read-out: CREB reporter inhibition (IC50)”, the IC50 came to 2220 ± 380 nM.
